The text below walks through data of US10131653B2, “Heterocyclic compound” (TAKEDA PHARMACEUTICAL COMPANY LIMITED, priority 2015, dated 2018).

The target of one data set is T1, human OX1 receptor (Homo sapiens, UniProt O43613).
T1 construct: expressed in transfected cells; host or cells: CHO cells
T1 sequence (O43613 1-425): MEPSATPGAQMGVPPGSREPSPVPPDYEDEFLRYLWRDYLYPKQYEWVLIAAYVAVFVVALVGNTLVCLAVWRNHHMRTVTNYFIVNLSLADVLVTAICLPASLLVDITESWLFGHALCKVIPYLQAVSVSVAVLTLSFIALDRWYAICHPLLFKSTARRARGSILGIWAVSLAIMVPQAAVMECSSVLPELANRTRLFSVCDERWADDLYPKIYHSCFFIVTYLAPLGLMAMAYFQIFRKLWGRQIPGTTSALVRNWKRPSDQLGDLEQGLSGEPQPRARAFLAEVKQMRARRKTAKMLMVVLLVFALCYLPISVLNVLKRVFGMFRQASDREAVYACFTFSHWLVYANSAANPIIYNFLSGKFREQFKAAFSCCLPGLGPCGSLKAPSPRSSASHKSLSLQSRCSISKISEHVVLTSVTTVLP
The data set can be described thus: Measurement of orexin receptor antagonistic activity (calcium fluorescence, FLIPRtetra). The data set is classed as cell-based. Conditions: 10 μM test compound, CHO cells expressing human OX1 receptor, OX-A 1 nM; for inhibition at 10 µM: CHO, read-out: Human Orexin1 receptor inhibition (at 10 μM). An outline of the steps: (§1)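 CHO cells expressing human OX1 or OX2 receptor, cultured one day. Compound in HBSS/20 mM HEPES/0.1% BSA added, then orexin-A at 1 nM final (OX1) or 0.3 nM final (OX2); calcium fluorescence by FLIPRtetra every 1 s for 2 min.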

The target in a further data set is T2, human OX2 receptor (Homo sapiens, UniProt O43614).
T2 construct: expressed in transfected cells; host or cells: CHO cells
T2 sequence (O43614 1-444): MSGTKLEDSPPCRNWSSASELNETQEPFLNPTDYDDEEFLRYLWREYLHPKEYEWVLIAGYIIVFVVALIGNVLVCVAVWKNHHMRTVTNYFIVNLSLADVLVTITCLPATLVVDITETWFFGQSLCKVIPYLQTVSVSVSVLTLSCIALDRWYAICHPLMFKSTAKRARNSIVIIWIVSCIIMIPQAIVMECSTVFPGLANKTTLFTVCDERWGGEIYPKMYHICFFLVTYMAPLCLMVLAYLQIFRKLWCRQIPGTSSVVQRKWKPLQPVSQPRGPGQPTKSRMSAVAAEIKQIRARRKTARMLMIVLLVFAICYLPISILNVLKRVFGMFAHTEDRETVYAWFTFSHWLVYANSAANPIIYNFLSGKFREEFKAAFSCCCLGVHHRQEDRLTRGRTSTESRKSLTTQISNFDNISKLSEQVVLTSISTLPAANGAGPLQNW
Described as above. The data set is classed as cell-based. The conditions noted are these: CHO, 10 μM test compound; CHO cells expressing human OX2 receptor; OX-A 0.3 nM; read-out: Human Orexin2 receptor inhibition (at 10 μM). Put shortly: as §1

Data set [1] can be described thus: Measurement of solubility. The conditions noted are these: aqueous buffer, thermodynamic from solid; Britton-Robinson's Buffer pH 3, 37° C., shaking 2 hr; crystals from n-heptane suspension. The data set is classed as physicochemical. Here is the method: n-Heptane was added to the compounds of Examples 1, 2 and 102 at 40 mg/mL, respectively, and the mixtures were continued to be stirred at room temperature in a suspended state. After 3 to 7 days, the mixtures were filtered, and the obtained crystals as a sample were subjected to powder X-ray diffraction measurement (measurement condition: mentioned above) and solubility measurement.

For a further data set, the system named is Orexin-A-induced rats. The data set can be described thus: Locomotor activity test using Orexin-A-induced rats. The conditions noted are these: rat; for Locomotor activity increased by cerebral ventricular administration of Orexin-A: 30 mg/kg subcutaneous; for Locomotor activity (Counts/90 min): 30 mg/kg subcutaneous 30 min before Orexin-A (1 nmol) cerebral ventricular administration, mean. The data set is classed as in vivo. Here is the method:
The male SD rats described in Experimental Example 2 were used.
From the day before drug administration, the animals were acclimated to a locomotor activity measurement apparatus (Muromachi Kikai Co., Ltd.). Solvent (0.5% (w/v) methyl cellulose solution) and the compound (30 mg/kg) of Example 1 or the compound (30 mg/kg) of Example 2 were subcutaneously administered 30 min before administration of saline or Orexin-A (1 nmol). The locomotor activity was quantified for 30 min to 90 min after the cerebral ventricular administration of Orexin-A. A comparison with saline+solvent administration group was tested by Student's t-test (*p≤0.05). A comparison with Orexin-A+solvent administration group was tested by Dunnett's test (#p≤0.05).

A further data set concerns Male SD rats. The data set can be described thus: Effect on sleep in rat (brain wave measurement). Type of data set: in vivo. Here is the method:
Male SD rats were purchased from Charles River Laboratories Japan, Inc. They were used for an experiment after an acclimation period of at least one week after carrying them in the animal experimental facility. They were bred in the animal experimental facility with environment in which 12-hours light-dark cycle was performed, humidity and temperature were controlled, and free water drinking and feeding were allowed.
Electrodes for brain wave measurement were implanted in rat cortex, muscle electrodes were implanted in rat cervical muscle, and a transmitter was implanted under rat back skin. Rats in which chronic electrodes were implanted were fully acclimated to a box for brain wave measurement, and then the brain wave measurement was performed. The brain wave data was obtained using Dataquest ART manufactured by Data Sciences International. For analysis, wakefulness, non-REM sleep and REM sleep were automatically determined using Sleep Sign which is a program for sleep analysis study by KISSEI COMTEC Co., Ltd. The compound of Example 102 was subcutaneously administered at a dose of 3 mg/kg immediately before beginning of dark period. The sum of non-REM sleep and REM sleep 1 hr after the administration was regarded as total sleep. All data were shown as the mean+standard error. For statistical analysis, variance analysis to crossover was performed (*p ?0.05).

For `Cc1cc(N2CCN(C(=O)c3ccccc3-n3nccn3)C[C@H](C)O2)nc(C)n1` [Example 2, ((7S)-2-(2,6-dimethylpyrimidin-4-yl)-7-methyl-1,2,5-oxadiazepan-5-yl)(2-(2H-1,2,3-triazol-2-yl)phenyl)methanone], the inhibition at 10 µM at human OX1 receptor worked out at 68%. Further, the inhibition at 10 µM on human OX2 receptor amounted to 101%. Besides, the solubility at 2 h in data set [1] was not below 5000 µg/mL. In addition, in the data set on Orexin-A-induced rats, the “Locomotor activity increased by cerebral ventricular administration of Orexin-A” value is listed as “significantly decreased” and the “Locomotor activity (Counts/90 min)” value is on record as 2638 Counts/90 min.
With `Cc1cc(N2CCN(C(=O)c3cc(Cl)ccc3-n3nccn3)C[C@H](C)O2)nc(C)n1` [Example 102, (5-chloro-2-(2H-1,2,3-triazol-2-yl)phenyl)((7S)-2-(2,6-dimethylpyrimidin-4-yl)-7-methyl-1,2,5-oxadiazepan-5-yl)methanone], the “Human Orexin1 receptor inhibition (at 10 μM)” value on human OX1 receptor amounted to 94%. In addition, the inhibition at 10 µM on human OX2 receptor came to 101%. This compound also came in with a solubility at 2 h in data set [1] not below 5000 µg/mL. In the data set with Male SD rats (3 mg/kg subcutaneous), the “Total sleep compared with solvent control group” value is given as “significantly increased”. In addition, in the data set on Male SD rats (3 mg/kg subcutaneous immediately before dark period, sum of non-REM and REM sleep 1 hr after administration, mean), the “Total sleep” value turned out to be 33.51 min.
With `Cc1cc(N2CCN(C(=O)c3cc(F)ccc3-n3nccn3)C[C@H](C)O2)nc(C)n1` [Example 1, ((7S)-2-(2,6-dimethylpyrimidin-4-yl)-7-methyl-1,2,5-oxadiazepan-5-yl)(5-fluoro-2-(2H-1,2,3-triazol-2-yl)phenyl)methanone], the inhibition at 10 µM on human OX1 receptor came out at 47%; on human OX2 receptor, 98%. The same compound came in with a solubility at 2 h in data set [1] not below 5000 µg/mL. Besides, the “Locomotor activity increased by cerebral ventricular administration of Orexin-A” value with Orexin-A-induced rats is reported as “significantly decreased”. Further, in the data set with Orexin-A-induced rats, the “Locomotor activity (Counts/90 min)” value is given as 3528 Counts/90 min.
On to `Cc1cc(N2CCN(C(=O)c3cc(F)c(F)cc3-n3nccn3)CCO2)nc(C)n1` [Example 15, (4,5-difluoro-2-(2H-1,2,3-triazol-2-yl)phenyl) (2-(2,6-dimethylpyrimidin-4-yl)-1,2,5-oxadiazepan-5-yl)methanone], for which the results for the inhibition at 10 µM at human OX1 receptor and on human OX2 receptor were 5% and 102%, respectively.
Turning to `C[C@H]1CN(C(=O)c2cc(Cl)ccc2-n2nccn2)CCN(c2cc(C(F)F)nc(C3CC3)n2)O1` [Example 105, (5-chloro-2-(2H-1,2,3-triazol-2-yl)phenyl)((7S)-2-(2-cyclopropyl-6-(difluoromethyl)pyrimidin-4-yl)-7-methyl-1,2,5-oxadiazepan-5-yl)methanone], the inhibition at 10 µM on human OX1 receptor was found to be 96%; on human OX2 receptor it was 98%.
As to `Cc1nc(C(F)F)cc(N2CCN(C(=O)c3ccccc3-n3nccn3)C[C@H](C)O2)n1` [Example 93, ((7S)-2-(6-(difluoromethyl)-2-methylpyrimidin-4-yl)-7-methyl-1,2,5-oxadiazepan-5-yl) (2-(2H-1,2,3-triazol-2-yl)phenyl)methanone], the figures for the inhibition at 10 µM on human OX1 receptor and on human OX2 receptor were 72% and 100%, respectively.

By inhibition is commonly meant the drop in the measured response relative to a control, in per cent. By solubility is commonly meant the concentration that dissolves in the medium under given conditions. A low value points to little dissolved substance.
